Experimental data reported in PubChem BioAssay AID2060894 (Molecular Pharmacology Branch, DTP, NCI, 2025).

System: K12877-001-R-J1-PDC complex spheroid viability
Assay: Anticancer human tumor K12877-001-R-J1-PDC patient-derived lung adenocarcinoma cell line growth inhibition [RAS]
Settings: for IC50: curve of first compound; for viability, T/C: stronger effect = lower value; active = viability on the fitted dose curve at most 10% of control; inactive = the rest
Summary of the method: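 Multi-cell-type spheroids: tumor cells plus HUVEC endothelial cells and mesenchymal stem cells. RAS-pathway inhibitors were combined with targeted agents, each dosed in half-log steps down from clinical Cmax, or from 10 microM when Cmax was unknown.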

[1] = second compound 0.000949 µM, first compound 0.0316 µM
[2] = second compound 0.000949 µM, first compound 0.1 µM
[3] = second compound 0.000949 µM, first compound 0.316 µM
[4] = second compound 0.000949 µM, first compound 1 µM
[5] = second compound 0.000949 µM, first compound 3.16 µM
[6] = second compound 0.000949 µM, first compound 10 µM
[7] = second compound 0.003 µM, first compound 0.0316 µM
[8] = second compound 0.003 µM, first compound 0.1 µM
[9] = second compound 0.003 µM, first compound 0.316 µM
[10] = second compound 0.003 µM, first compound 1 µM
[11] = second compound 0.003 µM, first compound 3.16 µM
[12] = second compound 0.003 µM, first compound 10 µM
[13] = second compound 0.00949 µM, first compound 0.0316 µM
[14] = second compound 0.00949 µM, first compound 0.1 µM
[15] = second compound 0.00949 µM, first compound 0.316 µM
[16] = second compound 0.00949 µM, first compound 1 µM
[17] = second compound 0.00949 µM, first compound 3.16 µM
[18] = second compound 0.00949 µM, first compound 10 µM
[19] = second compound 0.03 µM, first compound 0.0316 µM
[20] = second compound 0.03 µM, first compound 0.1 µM
[21] = second compound 0.03 µM, first compound 0.316 µM
[22] = second compound 0.03 µM, first compound 1 µM
[23] = second compound 0.03 µM, first compound 3.16 µM
[24] = second compound 0.03 µM, first compound 10 µM
[25] = second compound 0.0949 µM, first compound 0.0316 µM
[26] = second compound 0.0949 µM, first compound 0.1 µM
[27] = second compound 0.0949 µM, first compound 0.316 µM
[28] = second compound 0.0949 µM, first compound 1 µM
[29] = second compound 0.0949 µM, first compound 3.16 µM
[30] = second compound 0.0949 µM, first compound 10 µM
[31] = second compound 0.3 µM, first compound 0.0316 µM
[32] = second compound 0.3 µM, first compound 0.1 µM
[33] = second compound 0.3 µM, first compound 0.316 µM
[34] = second compound 0.3 µM, first compound 1 µM
[35] = second compound 0.3 µM, first compound 3.16 µM
[36] = second compound 0.3 µM, first compound 10 µM
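Note: spheroids exposed to agents for one week before readout.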
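Throughout, for viability, T/C: tumour cells co-cultured with HUVEC and mesenchymal stem cells in spheroids.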

CC(=O)OC12COC1CC(O)C1(C)C(=O)C(O)C3=C(C)C(OC(=O)C(O)C(NC(=O)OC(C)(C)C)c4ccccc4)CC(O)(C(OC(=O)c4ccccc4)C21)C3(C)C (centres undefined) + CCn1c(-c2cc(N3CCN(C)CC3)cnc2C(C)OC)c2c3cc(ccc31)-c1csc(n1)CC(NC(=O)C1CC1C)C(=O)N1CCCC(N1)C(=O)OCC(C)(C)C2
active: viability, T/C [1] 7.37% | viability, T/C [2] 5.79% | viability, T/C [3] 4.69% | viability, T/C [4] 5.58% | viability, T/C [5] 7.53% | viability, T/C [6] 12.1% | viability, T/C [7] 5.77% | viability, T/C [8] 4.36% | viability, T/C [9] 3.51% | viability, T/C [10] 4.48% | viability, T/C [11] 5.26% | viability, T/C [12] 14% | viability, T/C [13] 5.17% | viability, T/C [14] 4.24% | viability, T/C [15] 3.37% | viability, T/C [16] 3.68% | viability, T/C [17] 4.57% | viability, T/C [18] 12.9% | viability, T/C [19] 4.63% | viability, T/C [20] 2.99% | viability, T/C [21] 3.02% | viability, T/C [22] 3.05% | viability, T/C [23] 4.55% | viability, T/C [24] 10.7% | viability, T/C [25] 4.19% | viability, T/C [26] 2.73% | viability, T/C [27] 2.45% | viability, T/C [28] 2.46% | viability, T/C [29] 3.56% | viability, T/C [30] 9.41% | viability, T/C [31] 3.57% | viability, T/C [32] 2.99% | viability, T/C [33] 2.53% | viability, T/C [34] 2.8% | viability, T/C [35] 4.22% | viability, T/C [36] 9.04%
< 31.6 nM: IC50 (second compound 0.000949 µM) | IC50 (second compound 0.003 µM) | IC50 (second compound 0.00949 µM) | IC50 (second compound 0.03 µM) | IC50 (second compound 0.0949 µM) | IC50 (second compound 0.3 µM)

CCC(CC)c1cc(NC2CCC(N)C2)n2nccc2n1 (centres undefined) + CCn1c(-c2cc(N3CCN(C)CC3)cnc2C(C)OC)c2c3cc(ccc31)-c1csc(n1)CC(NC(=O)C1CC1C)C(=O)N1CCCC(N1)C(=O)OCC(C)(C)C2
inactive: viability, T/C [1] 87.7% | viability, T/C [2] 80% | viability, T/C [3] 84.6% | viability, T/C [4] 64.7% | viability, T/C [7] 65.8% | viability, T/C [8] 69.4% | viability, T/C [9] 66.5% | viability, T/C [10] 64% | viability, T/C [13] 62% | viability, T/C [14] 65.9% | viability, T/C [15] 71.3% | viability, T/C [16] 76.7% | viability, T/C [19] 95.4% | viability, T/C [20] 92.6% | viability, T/C [21] 99.5% | viability, T/C [22] 77.5% | viability, T/C [25] 119% | viability, T/C [26] 107% | viability, T/C [27] 102% | viability, T/C [28] 63.6% | viability, T/C [31] 94.6% | viability, T/C [32] 98.1% | viability, T/C [33] 86.2% | viability, T/C [34] 55.2%
active: viability, T/C [5] 1.77% | viability, T/C [6] 0.95% | viability, T/C [11] 1.46% | viability, T/C [12] 0.76% | viability, T/C [17] 1.47% | viability, T/C [18] 0.9% | viability, T/C [23] 1.04% | viability, T/C [24] 0.76% | viability, T/C [29] 1.11% | viability, T/C [30] 0.76% | viability, T/C [35] 0.75% | viability, T/C [36] 0.8%
1310 nM: IC50 (second compound 0.000949 µM)
1380 nM: IC50 (second compound 0.00949 µM)
1290 nM: IC50 (second compound 0.003 µM)
1270 nM: IC50 (second compound 0.0949 µM)
1100 nM: IC50 (second compound 0.3 µM)
1510 nM: IC50 (second compound 0.03 µM)
